Source: article PMC12223310, “Mining the heparinome for cryptic antimicrobial peptides that selectively kill Gram-negative bacteria” (Molecular Systems Biology, 2025)
≈ marks a conversion by molar mass, not a printed value. Square brackets hold non-standard residues; d marks the D form. Ends that are not written are not given here. Peptide text beside a SMILES is read from it.

Columns and labels:
[1] = test system: Escherichia coli; type: cell-based, Escherichia coli BW25113
Method: (§1) Antimicrobial activities were determined by the microtiter broth dilution method recommended by the National Committee of Laboratory Safety and Standards (NCLSS), adapted for AMPs (Wiegand et al, [2008]). Briefly, overnight bacterial cell cultures were brought to an exponential growth state (OD600 = 0.4) in MH broth and diluted to a final concentration of 5 × 10^5 CFU/mL. In all, 1:2 peptide serial dilutions were prepared in 96-well polypropylene plates (Greiner, Frickenhausen, Germany), in MH medium containing 0.2% (w/v) of bovine serum albumin (BSA) and 0.02% glacial acetic acid. […] The lowest concentration with no colonies was taken as MBC. The results are the average of three independent studies.

[2] = test system: Acinetobacter baumannii; type: cell-based, Acinetobacter baumannii ATCC 15308
Method: as §1

[3] = test system: Pseudomonas sp (Pseudomonas aeruginosa); type: cell-based, Pseudomonas aeruginosa ATCC 15915
Method: as §1

[4] = test system: Staphylococcus aureus; type: cell-based, Staphylococcus aureus ATCC 12600
Method: as §1

[5] = test system: Listeria monocytogenes; type: cell-based, Listeria monocytogenes ATCC 19112
Method: as §1

[6] = test system: horse erythrocytes; type: cell-based
Method: Peptide toxicity was tested on horse erythrocytes (Sandín et al, [2021]). Horse defibrinated blood was washed three times in phosphate buffer saline (PBS) pH 7.2 by centrifugation at 3× 3000 rpm for 10 min, to remove excess hemoglobin in the supernatant and then diluted tenfold in PBS. Next, 50 μL of erythrocytes were added to a 1.5 mL polypropylene tube and incubated with 50 μL of a 1:2 peptide serial dilution in PBS. An erythrocyte disruption (ED) control was prepared by adding 50 μL of 0.1% TritonX-100 in PBS instead of the peptides and an intact erythrocyte (IC) control by adding 50 μL of PBS alone. All samples and controls were incubated for 2 h at 37 °C. Samples were centrifuged at 3000 rpm for 3 min, and the supernatants were transferred to a polystyrene 96-well plate and inspected for ED by reading the absorbance at 540 nm in a Tecan Spark instrument (Tecan, Männedorf, Switzerland). The results are the average of three independent studies. The hemolysis percentage was calculated as: Hemolysis%=Sample−IC/ED−IC×100

[7] = in vitro; type: cell-based; conditions: human, MRC-5 cells
Method: (§2) Toxicity in MRC-5 and HepG2 cells was tested by the MTT assay, as described (Bello-Madruga et al, [2023]). Cell lines were maintained in Eagle’s minimum essential medium (MEMα) supplemented with 10% fetal bovine serum (FBS). Cells were cultured in 75-cm^2 flasks and then transferred to polystyrene 96-well plates, at 3 × 10^4 cells per well, and incubated overnight for attachment to the well surface. Then culture media was removed and 1:2 peptide serial dilutions in MEMα were added to each well and later incubated for 4 h. After incubation, peptides were removed and 100 μL of 0.5 mg/mL MTT staining solution in MEMα supplemented with 10% FBS was added to cells and incubated for 1.5 h at 37 °C. Formazan crystals in living cells were detected after disruption with 200 μL dimethyl sulfoxide and then absorbance was measured at 570 nm in a Tecan Spark instrument (Tecan, Männedorf, Switzerland). The results are the average of three independent studies.

[8] = type: in vitro ADME
Method: 500 µL of 1 mM peptide stock in MiliQ water were mixed with 500 µL of human serum (Sigma-Aldrich, St. Louis, MO, USA). The mixture was incubated at 37 °C with shaking, and at various time points aliquots were taken and proteolysis was stopped with cold acetonitrile (80% in MiliQ water). The samples were chilled at 4 °C for 10 min to precipitate serum proteins, and centrifuged at 13,000 rpm at 4 °C for 15 min. The supernatant was collected and analyzed by LC and LC-MS with a –60% linear gradient of solvent B (0.036%TFA in ACN) into A (0.045% TFA in H2O) over 15 min at 1 mL/min flow rate. Unaltered peptide was determined by peak integration, expressed as the percent of the amount at 0 min, and data were fitted to a one-phase exponential decay model using GraphPad Prism 8.01 to estimate half-life time (t1/2). The results are the average of three independent experiments.

[9] = test system: Enterococcus faecium; type: cell-based, Enterococcus faecium ATCC 19434
Method: as §1

[10] = test system: A. baumannii 3878; type: cell-based
Method: as §1

[11] = test system: A. baumannii 3880; type: cell-based
Method: as §1

[12] = test system: E. coli 1166795; type: cell-based
Method: as §1

[13] = test system: E. coli CFT073; type: cell-based
Method: as §1

[14] = test system: P. aeruginosa 827632; type: cell-based
Method: as §1

[15] = test system: P. aeruginosa 827651; type: cell-based
Method: as §1

[16] = test system: MRC-5 cells; assay: in vitro; type: cell-based
Method: as §2

[17] = Cytotoxicity, MTT assay; type: cell-based; conditions: human, HepG2 cells, 4 h peptide incubation in MEMα, average of three studies, read-out: LC50 (HepG2 cells)
Method: as §2

## CC(C)C[C@@H](NC(=O)[C@@H](CC(N)=O)NC(=O)[C@H](N)Cc1c[nH]cn1)C(=O)N[C@H](Cc1ccccc1)C(=O)N[C@H](CCCNC(=N)N)C(=O)N[C@H](CCCCN)C(=O)N[C@H](CC(C)C)C(=O)N[C@@H](C(=O)N[C@H](Cc1c[nH]cn1)C(=O)N[C@H](CCCNC(=N)N)C(=O)N[C@H](CC(C)C)C(=O)N[C@H](Cc1ccccc1)C(=O)N[C@H](CCCNC(=N)N)C(=O)N[C@H](CCCNC(=N)N)C(=O)N[C@H](CC(N)=O)C(=O)N[C@H](Cc1ccccc1)C(=O)NCC(=O)N[C@H](Cc1ccc(O)cc1)C(=O)N[C@@H](C(=O)N[C@H](CC(C)C)C(=O)N[C@H](CCCNC(=N)N)C(=O)N[C@H](CO)C(=O)N[C@@H](C(N)=O)C(C)C)[C@H](C)O)[C@H](C)O [dHBP-5] (H-[dH][dN][dL][dF][dR][dK][dL][dT][dH][dR][dL][dF][dR][dR][dN][dF]G[dY][dT][dL][dR][dS][dV]-NH2)
[1]
  MIC E. coli: 0.1 µM (≈ 0.293 µg/mL)
[2]
  MIC A. baumannii: 0.2 µM (≈ 0.586 µg/mL)
[3]
  MIC Pseudomonas sp: 0.2 µM (≈ 0.586 µg/mL)
[4]
  MIC S. aureus: 0.8 µM (≈ 2.35 µg/mL)
[5]
  MIC L. monocytogenes: 0.4 µM (≈ 1.17 µg/mL)
[6]
  Hemolysis (250 µM peptide): 29 ± 1
[7]
  CC50 at 4 h: 30 ± 1 µM
[8]
  half-life in human serum: exceeding 6 hours

## HNLFRKLTHRLFRRNFGYTLRSV-NH2 [HBP-5]
[1]
  MBC E. coli: 0.4 µM
  MIC E. coli: 0.4 µM
[2]
  MBC A. baumannii: 0.2 µM
  MIC A. baumannii: 0.2 µM
[3]
  MBC Pseudomonas sp: 0.8 µM
  MIC Pseudomonas sp: 0.8 µM
[4]
  MBC S. aureus: 6.3 µM
  MIC S. aureus: 6.3 µM
[9]
  MBC E. faecium: 6.3 µM
  MIC E. faecium: 3.1 µM
[5]
  MBC L. monocytogenes: 3.1 µM
  MIC L. monocytogenes: 1.6 µM
[10]
  MBC A. baumannii 3878: 0.2 µM
  MIC A. baumannii 3878: 0.2 µM
[11]
  MBC A. baumannii 3880: 0.4 µM
  MIC A. baumannii 3880: 0.4 µM
[12]
  MBC E. coli 1166795: < 0.1 µM
  MIC E. coli 1166795: < 0.1 µM
[13]
  MBC E. coli CFT073: 0.8 µM
  MIC E. coli CFT073: 0.4 µM
[14]
  MBC P. aeruginosa 827632: 1.6 µM
  MIC P. aeruginosa 827632: 1.6 µM
[15]
  MBC P. aeruginosa 827651: 1.6 µM
  MIC P. aeruginosa 827651: 0.8 µM
[6]
  Hemolysis (250 µM peptide): 23 ± 1
[7]
  CC50 at 4 h: 69 ± 2 µM
[16]
  LC50 (MRC-5 cells, µM): 69 µM
[17]
  CC50 at 4 h: 80 µM
